Measured values taken from patent US10499642B2, “Isoxazoline-substituted benzamides and analogues as insecticides” (SYNGENTA PARTICIPATIONS AG, priority 2015, dated 2019).
Like-named read-outs stand apart in the source and are kept apart here.

Key:
Type in all cases: in vivo
Thrips tabaci = Thrips tabaci (onion thrips) sunflower leaf disc test; conditions: foliar, 144 h
Protocol: Thrips tabaci (Onion Thrips):
Sunflower leaf discs were placed on agar in 24-well microtiter plates and sprayed with aqueous test solutions prepared from 10′000 ppm DMSO stock solutions. After drying the leaf discs were infested with a thrips population of mixed ages. The samples were assessed for mortality 6 days after infestation.

Plutella xylostella = Plutella xylostella (diamond back moth) artificial diet test; conditions: 120 h, read-out: effect in at least one of the two categories (mortality or growth inhibition)
Outline: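 At a 200 ppm rate, test solutions were applied to artificial diet and allowed to dry before second-instar larvae were added. Five days later, larval mortality and growth inhibition were rated against untreated samples.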

Spodoptera littoralis = Spodoptera littoralis (Egyptian cotton leaf worm) cotton leaf disc test; conditions: foliar, 72 h, read-out: control (at least one of mortality, anti-feedant effect, and growth inhibition)
Outline: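 Five first-instar larvae per disc were placed on dried, sprayed cotton leaf discs held on agar. Test solutions were aqueous, made from 10′000 ppm DMSO stocks. At day 3, control was counted when mortality, feeding deterrence or growth inhibition exceeded the untreated discs.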

Diabrotica Balteata = assay: Diabrotica balteata (corn root worm) maize sprout test; conditions: 96 h, read-out: effect in at least one of the two categories (mortality or growth inhibition)
Outline: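 Scoring covered both mortality and growth inhibition relative to untreated controls, 4 days post-infestation. Test solutions at 200 ppm, diluted in water from 10′000 ppm DMSO stocks, were sprayed onto agar-held maize sprouts, which after drying received 6 to 10 L2 larvae each well.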

Tetranychus urticae = Tetranychus urticae (two-spotted spider mite) bean leaf disc test; conditions: foliar, 192 h
Protocol: Tetranychus urticae (Two-Spotted Spider Mite):
Bean leaf discs on agar in 24-well microtiter plates were sprayed with aqueous test solutions prepared from 10′000 ppm DMSO stock solutions. After drying the leaf discs were infested with a mite population of mixed ages. The samples were assessed for mortality on mixed population (mobile stages) 8 days after infestation.

Myzus persicae = Myzus persicae (green peach aphid) sunflower leaf disc test; conditions: foliar, 144 h
Protocol: Myzus persicae (Green Peach Aphid):
Sunflower leaf discs were placed on agar in a 24-well microtiter plate and sprayed with test solutions at an application rate of 200 ppm. After drying, the leaf discs were infested with an aphid population of mixed ages. After an incubation period of 6 days after treatment, samples were checked for mortality. The following compounds gave at least 80% mortality of Myzus persicae: […]

[1] = application rate 200 ppm, sunflower leaf discs, population of mixed ages, 6 days after infestation, read-out: mortality
[2] = application rate 200 ppm, artificial diet, L2 larvae, 5 days after infestation
[3] = application rate 200 ppm, cotton leaf discs, L1 larvae, 3 days after infestation
[4] = application rate 200 ppm, maize sprouts, L2 larvae, 4 days after infestation
[5] = application rate 200 ppm, bean leaf discs, mixed population (mobile stages), 8 days after infestation, read-out: mortality
[6] = application rate 200 ppm, sunflower leaf discs, population of mixed ages, 6 days after treatment, read-out: mortality

CCSC1=NOC(NC(=O)c2ccc(C3=NO[C@@](c4cc(Cl)c(Cl)c(Cl)c4)(C(F)(F)F)C3)cc2C)C1 (stereo partly drawn) [Compound A052]
≥ 80%: mortality at 200 ppm (Thrips tabaci) | percent effect (mortality or growth inhibition) at 200 ppm (Plutella xylostella) | percent control (mortality, anti-feedant effect or growth inhibition) at 200 ppm (Spodoptera littoralis) | percent effect (mortality or growth inhibition) at 200 ppm (Diabrotica Balteata) | mortality at 200 ppm (Tetranychus urticae) | mortality at 200 ppm (Myzus persicae)

COCC1=NOC(NC(=O)c2ccc(C3=NO[C@@](c4cc(Cl)c(F)c(Cl)c4)(C(F)(F)F)C3)cc2C)C1 (stereo partly drawn) [Compound A090]
≥ 80%: mortality at 200 ppm (Thrips tabaci) | percent effect (mortality or growth inhibition) at 200 ppm (Plutella xylostella) | percent control (mortality, anti-feedant effect or growth inhibition) at 200 ppm (Spodoptera littoralis) | percent effect (mortality or growth inhibition) at 200 ppm (Diabrotica Balteata) | mortality at 200 ppm (Tetranychus urticae) | mortality at 200 ppm (Myzus persicae)

CC1=NOC(N(C=O)C(=O)c2ccc(C3=NO[C@@](c4cc(Cl)c(F)c(Cl)c4)(C(F)(F)F)C3)cc2Br)C1 (stereo partly drawn) [Compound A034, 2-bromo-4-[(5S)-5-(3,5-dichloro-4-fluoro-phenyl)-5-(trifluoromethyl)-4H-isoxazol-3-yl]-N-formyl-N-(3-methyl-4,5-dihydroisoxazol-5-yl)benzamide]
≥ 80%: mortality at 200 ppm (Thrips tabaci) | percent effect (mortality or growth inhibition) at 200 ppm (Plutella xylostella) | percent control (mortality, anti-feedant effect or growth inhibition) at 200 ppm (Spodoptera littoralis) | percent effect (mortality or growth inhibition) at 200 ppm (Diabrotica Balteata) | mortality at 200 ppm (Tetranychus urticae) | mortality at 200 ppm (Myzus persicae)

Cc1cc(C2=NO[C@@](c3cc(Cl)cc(Cl)c3)(C(F)(F)F)C2)ccc1C(=O)NC1CC(OCC(F)F)=NO1 (stereo partly drawn) [Compound A128]
≥ 80%: mortality at 200 ppm (Thrips tabaci) | percent effect (mortality or growth inhibition) at 200 ppm (Plutella xylostella) | percent control (mortality, anti-feedant effect or growth inhibition) at 200 ppm (Spodoptera littoralis) | percent effect (mortality or growth inhibition) at 200 ppm (Diabrotica Balteata) | mortality at 200 ppm (Tetranychus urticae) | mortality at 200 ppm (Myzus persicae)

Cc1cc(C2=NO[C@@](c3cc(Br)cc(C(F)(F)F)c3)(C(F)(F)F)C2)ccc1C(=O)NC1CC(Cl)=NO1 (stereo partly drawn) [Compound A021, 4-[(5S)-5-[3-bromo-5-(trifluoromethyl)phenyl]-5-(trifluoromethyl)-4H-isoxazol-3-yl]-N-(3-chloro-4,5-dihydroisoxazol-5-yl)-2-methyl-benzamide]
≥ 80%: mortality at 200 ppm (Thrips tabaci; [1]) | percent effect (mortality or growth inhibition) at 200 ppm (Plutella xylostella; [2]) | percent control (mortality, anti-feedant effect or growth inhibition) at 200 ppm (Spodoptera littoralis; [3]) | percent effect (mortality or growth inhibition) at 200 ppm (Diabrotica Balteata; [4]) | mortality at 200 ppm (Tetranychus urticae; [5]) | mortality at 200 ppm (Myzus persicae; [6])

CC1=NOC(NC(=O)c2ccc(C3=NO[C@@](c4cc(Cl)cc(C(F)(F)F)c4)(C(F)(F)F)C3)cc2C)C1 (stereo partly drawn) [Compound A028, 4-[(5S)-5-[3-chloro-5-(trifluoromethyl)phenyl]-5-(trifluoromethyl)-4H-isoxazol-3-yl]-2-methyl-N-(3-methyl-4,5-dihydroisoxazol-5-yl)benzamide]
≥ 80%: mortality at 200 ppm (Thrips tabaci) | percent effect (mortality or growth inhibition) at 200 ppm (Plutella xylostella) | percent control (mortality, anti-feedant effect or growth inhibition) at 200 ppm (Spodoptera littoralis) | percent effect (mortality or growth inhibition) at 200 ppm (Diabrotica Balteata) | mortality at 200 ppm (Tetranychus urticae) | mortality at 200 ppm (Myzus persicae)

COC1=NOC(NC(=O)c2ccc(C3=NO[C@@](c4cccc(C(F)(F)F)c4)(C(F)(F)F)C3)cc2C)C1 (stereo partly drawn) [Compound A057]
≥ 80%: mortality at 200 ppm (Thrips tabaci; [1]) | percent effect (mortality or growth inhibition) at 200 ppm (Plutella xylostella; [2]) | percent control (mortality, anti-feedant effect or growth inhibition) at 200 ppm (Spodoptera littoralis; [3]) | percent effect (mortality or growth inhibition) at 200 ppm (Diabrotica Balteata; [4]) | mortality at 200 ppm (Tetranychus urticae; [5]) | mortality at 200 ppm (Myzus persicae; [6])

Cc1cc(C2=NO[C@@](c3cc(Cl)cc(C(F)(F)F)c3)(C(F)(F)F)C2)ccc1C(=O)N(C=O)C1CC(Br)=NO1 (stereo partly drawn) [Compound A142, N-(3-bromo-4,5-dihydroisoxazol-5-yl)-4-[(5S)-5-[3-chloro-5-(trifluoromethyl)phenyl]-5-(trifluoromethyl)-4H-isoxazol-3-yl]-N-formyl-2-methyl-benzamide]
≥ 80%: mortality at 200 ppm (Thrips tabaci) | percent effect (mortality or growth inhibition) at 200 ppm (Plutella xylostella) | percent control (mortality, anti-feedant effect or growth inhibition) at 200 ppm (Spodoptera littoralis) | percent effect (mortality or growth inhibition) at 200 ppm (Diabrotica Balteata) | mortality at 200 ppm (Tetranychus urticae) | mortality at 200 ppm (Myzus persicae)

COC1=NOC(NC(=O)c2ccc(C3=NO[C@@](c4cc(Cl)c(Cl)c(Cl)c4)(C(F)(F)F)C3)cc2C)C1 (stereo partly drawn) [Compound A041]
≥ 80%: mortality at 200 ppm (Thrips tabaci) | percent effect (mortality or growth inhibition) at 200 ppm (Plutella xylostella) | percent control (mortality, anti-feedant effect or growth inhibition) at 200 ppm (Spodoptera littoralis) | percent effect (mortality or growth inhibition) at 200 ppm (Diabrotica Balteata) | mortality at 200 ppm (Tetranychus urticae) | mortality at 200 ppm (Myzus persicae)

COC1=NO[C@H](NC(=O)c2ccc(C3=NO[C@@](c4cc(Cl)c(F)c(Cl)c4)(C(F)(F)F)C3)cc2C)C1 (single isomer, unassigned) [Compound A150]
≥ 80%: mortality at 200 ppm (Thrips tabaci) | percent effect (mortality or growth inhibition) at 200 ppm (Plutella xylostella) | percent control (mortality, anti-feedant effect or growth inhibition) at 200 ppm (Spodoptera littoralis) | percent effect (mortality or growth inhibition) at 200 ppm (Diabrotica Balteata) | mortality at 200 ppm (Tetranychus urticae) | mortality at 200 ppm (Myzus persicae)

C#CCOC1=NOC(NC(=O)c2ccc(C3=NO[C@@](c4cc(Cl)c(F)c(Cl)c4)(C(F)(F)F)C3)cc2C)C1 (stereo partly drawn) [Compound A074]
≥ 80%: mortality at 200 ppm (Thrips tabaci) | percent effect (mortality or growth inhibition) at 200 ppm (Plutella xylostella) | percent control (mortality, anti-feedant effect or growth inhibition) at 200 ppm (Spodoptera littoralis) | percent effect (mortality or growth inhibition) at 200 ppm (Diabrotica Balteata) | mortality at 200 ppm (Tetranychus urticae) | mortality at 200 ppm (Myzus persicae)

CCCOC1=NOC(NC(=O)c2ccc(C3=NO[C@@](c4cc(Cl)c(F)c(Cl)c4)(C(F)(F)F)C3)cc2C)C1 (stereo partly drawn) [Compound A070]
≥ 80%: mortality at 200 ppm (Thrips tabaci) | percent effect (mortality or growth inhibition) at 200 ppm (Plutella xylostella) | percent control (mortality, anti-feedant effect or growth inhibition) at 200 ppm (Spodoptera littoralis) | percent effect (mortality or growth inhibition) at 200 ppm (Diabrotica Balteata) | mortality at 200 ppm (Tetranychus urticae) | mortality at 200 ppm (Myzus persicae)

CC(=O)COC1=NOC(NC(=O)c2ccc(C3=NO[C@@](c4cc(Cl)c(Cl)c(Cl)c4)(C(F)(F)F)C3)cc2C)C1 (stereo partly drawn) [Compound A121, N-(3-acetonyloxy-4,5-dihydroisoxazol-5-yl)-2-methyl-4-[(5S)-5-(3,4,5-trichlorophenyl)-5-(trifluoromethyl)-4H-isoxazol-3-yl]benzamide]
≥ 80%: mortality at 200 ppm (Thrips tabaci) | percent effect (mortality or growth inhibition) at 200 ppm (Plutella xylostella) | percent control (mortality, anti-feedant effect or growth inhibition) at 200 ppm (Spodoptera littoralis) | percent effect (mortality or growth inhibition) at 200 ppm (Diabrotica Balteata) | mortality at 200 ppm (Tetranychus urticae) | mortality at 200 ppm (Myzus persicae)

CC1=NOC(N(C=O)C(=O)c2ccc(C3=NO[C@@](c4cc(Cl)cc(C(F)(F)F)c4)(C(F)(F)F)C3)cc2C)C1 (stereo partly drawn) [Compound A039, 4-[(5S)-5-[3-chloro-5-(trifluoromethyl)phenyl]-5-(trifluoromethyl)-4H-isoxazol-3-yl]-N-formyl-2-methyl-N-(3-methyl-4,5-dihydroisoxazol-5-yl)benzamide]
≥ 80%: mortality at 200 ppm (Thrips tabaci) | percent effect (mortality or growth inhibition) at 200 ppm (Plutella xylostella) | percent control (mortality, anti-feedant effect or growth inhibition) at 200 ppm (Spodoptera littoralis) | percent effect (mortality or growth inhibition) at 200 ppm (Diabrotica Balteata) | mortality at 200 ppm (Tetranychus urticae) | mortality at 200 ppm (Myzus persicae)
